Laboratory results published in patent publication US12617804B2, “Conjugation-fused bipolar redox-active molecule, preparation method, and application thereof” (Hangzhou Normal University, priority 2021, dated 2026).

Key:
[1] = Cyclic voltammetry (CV), TBA-TFSI supporting electrolyte in acetonitrile; assay type: physicochemical
Protocol: Redox kinetics of QPT-OMe obtained in Embodiment 1 is tested by cyclic voltammetry (CV). Tetrabutylammonium bis(trifluoromethylsulfonyl)imide (TBA-TF SI) is used as a supporting electrolyte and acetonitrile as a solvent. The results are shown in FIG. 3, where two pairs of symmetrical cathodic and anodic peaks can be clearly observed. The half-wave potentials of −2.04 and 0.72 V (with respect to Ag^+/Ag) correspond to the reduction and oxidation reactions of QPT-OMe, respectively. The open-circuit voltage is about 2.76 V when using QPT-OMe as the active material in the RFB, which is one of the highest value for bipolar molecules so far.
Furthermore, the QPT-OMe/QPT-OMe and QPT-P-OMe/QPT-OMe redox pairs show high rate constants of 1.4×10^−2 and 1.6×10-2 cm s^−1, respectively, by calculation. This is probably due to the relatively low recombination energy required for single electron transfer to occur from a large off-domain π-conjugated system. The high rate constants also imply negligible voltage loss when electrochemical reactions occur at the electrode surface.
The redox kinetics of QPT-TEG obtained in Embodiment 4 is tested by cyclic voltammetry (CV). Tetrabutylammonium bis(trifluoromethylsulfonyl)imide (TBA-TF SI) is used as a supporting electrolyte and acetonitrile as a solvent.

[2] = Miscibility of QPT-TEG with polar organic solvents; assay type: physicochemical; conditions: acetonitrile, dimethyl sulfoxide, dichloromethane and other solvents, in any ratio
Text: The bipolar redox-active molecule with the above structure (QPT-TEG) is a […] fluid that is miscible with most polar organic solvents. QPT-TEG is able to increase the overall solubility of the molecule by introducing long ether chains without changing the redox potential of the designed redox subject molecule.

[3] = with respect to Ag+/Ag, TBA-TFSI, acetonitrile

Row | SMILES | electrochemical window [1] | rate constant, QPT-OMe/QPT-OMe redox pair ([1]; first-named redox pair, by calculation) | open-circuit voltage as active material in the RFB ([1]; from the two half-wave potentials) | half-wave potential, oxidation reaction [1, 3] | half-wave potential, reduction reaction [1, 3] | miscibility with solvents [2] | redox behavior in CV ([1]; compared with QPT-OMe, FIG. 5)
1 | COc1ccc2c(c1)c(=O)c1cccc3c1n2-c1ccccc1S3 [QPT-OMe] | ~3 V | 0.014 cm/s | about 2.76 V | 0.72 V | −2.04 V | – | –
2 | COCCOCCOCCOc1ccc2c(c1)c(=O)c1cccc3c1n2-c1ccccc1S3 [QPT-TEG] | – | – | – | – | – | miscible | basically the same as that of QPT-OMe
